Laboratory results from patent US8148333B2, “Stable composition comprising a PTHrP analogue” (priority 2006, dated 2012).

Experiments:
bacteria, yeast and mold = assay: Preservative effectiveness test, screening of preservatives (Table 3); format: cell-based; details: Table 3 screening
Description: Solutions were prepared containing [Glu^22,25, Leu^23,28,31, Aib29, Lys^26,31]hPTHrP(1-34)NH2 (SEQ ID NO.: 2) 2 mg/ml, acetate buffer 6 mM and water for injection, with various different preservatives added at concentrations recommended for effective antimicrobial activity. Solutions were prepared at room temperature, by dissolution of the various ingredients in water for injection, with stirring over <30 minutes to ensure complete dissolution, Solutions were filtered through 0.2 micron filter and filled into glass vials, to which a rubber stopper was applied and crimped in place to ensure complete closure.
The solution with methylparaben was less acceptable due to precipitation and inactivity immediately after manufacture of the solution. The solutions were then stored for up to 3 months at 25° C., and up to 4.5 months at 5° C. and the preservative effectiveness test repeated. as described in Example 5.

Bacteria; Yeast and mold = assay: Anti-microbial effectiveness test, overall result (conformity); format: cell-based; details: for preservative effectiveness results for both Bacteria and Yeasts/moulds: immediately after manufacture
[1] = Chemical stability of formulations: (SEQ ID NO.: 2) content (Table 6); format: physicochemical; details: formulations of Table 6
From the text: TABLE 6 details the chemical stability of the formulations described in Example 4.

OCc1ccccc1 [Benzyl Alcohol]
suitability as preservative for use with SEQ ID NO.: 2 (precipitation and/or inactivity in preservative activity) (bacteria, yeast and mold): not suitable
efficacy against Bacteria (Bacteria; Yeast and mold; after 3 and 4.5 months storage): not compliant
preservative effectiveness results for both Bacteria and Yeasts/moulds (Bacteria; Yeast and mold): compliant

COC(=O)c1ccc(O)cc1 [Methyparaben]
suitability as preservative for use with SEQ ID NO.: 2 (precipitation and/or inactivity in preservative activity) (bacteria, yeast and mold): not suitable

Oc1ccccc1 [Phenol]
preservative efficacy for both Bacteria and Yeasts/moulds (Bacteria; Yeast and mold; after 3 and 4.5 months storage): maintained
preservative effectiveness results for both Bacteria and Yeasts/moulds (Bacteria; Yeast and mold): compliant

CC[C@H](C)[C@H](NC(=O)[C@H](CO)NC(=O)[C@H](CCCCN)NC(=O)CNC(=O)[C@H](CCCCN)NC(=O)[C@H](CC(=O)O)NC(=O)[C@H](Cc1cnc[nH]1)NC(=O)[C@H](CC(C)C)NC(=O)[C@H](CC(C)C)NC(=O)[C@H](CCC(N)=O)NC(=O)[C@H](Cc1cnc[nH]1)NC(=O)[C@H](CCC(=O)O)NC(=O)[C@H](CO)NC(=O)[C@@H](NC(=O)[C@H](C)N)C(C)C)C(=O)N[C@@H](CCC(N)=O)C(=O)N[C@@H](CC(=O)O)C(=O)N[C@@H](CC(C)C)C(=O)N[C@@H](CCCNC(=N)N)C(=O)N[C@@H](CCCNC(=N)N)C(=O)N[C@@H](CCCNC(=N)N)C(=O)N[C@@H](CCC(=O)O)C(=O)N[C@@H](CC(C)C)C(=O)N[C@@H](CC(C)C)C(=O)N[C@@H](CCC(=O)O)C(=O)N[C@@H](CCCCN)C(=O)N[C@@H](CC(C)C)C(=O)N[C@@H](CC(C)C)C(=O)NC(C)(C)C(=O)N[C@@H](CCCCN)C(=O)N[C@@H](CC(C)C)C(=O)N[C@@H](Cc1cnc[nH]1)C(=O)N[C@H](C(=O)N[C@@H](C)C(N)=O)[C@@H](C)O [SEQ ID NO.: 2, [Glu^22,25, Leu^23,28,31, Aib^29, Lys^26,30]hPTHrP(1-34)NH2]
solution stability, influence of the preservative selected [1]: not significantly influenced
